# pKi: −log10 of the molar value.
# Tests used:
# Thymidylate synthase [1] = biological target: T1, Thymidylate synthase (Lactobacillus casei, UniProt P00469); assay: Inhibitory constant against thymidylate synthase from Lactobacillus casei; parameters: species or system Lacticaseibacillus casei
# T1 sequence (P00469 whole entry): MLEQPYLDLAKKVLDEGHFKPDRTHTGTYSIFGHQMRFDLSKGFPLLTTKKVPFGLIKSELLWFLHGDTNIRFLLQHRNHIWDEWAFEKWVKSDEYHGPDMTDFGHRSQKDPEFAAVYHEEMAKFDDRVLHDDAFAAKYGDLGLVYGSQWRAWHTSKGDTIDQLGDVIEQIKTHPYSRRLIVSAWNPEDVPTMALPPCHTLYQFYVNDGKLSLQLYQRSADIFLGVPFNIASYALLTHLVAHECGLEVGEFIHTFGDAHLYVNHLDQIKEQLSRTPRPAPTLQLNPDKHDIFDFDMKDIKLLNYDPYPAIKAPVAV
# Thymidylate synthase [2] = biological target: Thymidylate synthase (Escherichia coli, UniProt C3SWJ7); assay: Inhibitory constant against thymidylate synthase from Escherichia coli
# Chain of Thymidylate synthase (Escherichia coli, UniProt C3SWJ7) (C3SWJ7 whole entry): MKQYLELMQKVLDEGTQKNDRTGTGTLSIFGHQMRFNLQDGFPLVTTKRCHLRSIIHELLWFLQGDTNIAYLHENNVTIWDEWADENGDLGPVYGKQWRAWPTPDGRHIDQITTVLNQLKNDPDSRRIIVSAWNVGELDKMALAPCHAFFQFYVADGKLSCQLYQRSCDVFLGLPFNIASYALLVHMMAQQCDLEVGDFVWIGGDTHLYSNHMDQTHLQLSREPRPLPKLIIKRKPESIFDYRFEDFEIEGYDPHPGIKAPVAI
SMILES,pKi (Thymidylate synthase [1]),pKi (Thymidylate synthase [2])
CN(C)c1cccc2c(S(=O)(=O)N[C@@H](Cc3ccc(OS(=O)(=O)c4cccc5c(N(C)C)cccc45)cc3)C(=O)O)cccc12,5.85,5.74
CN(C)c1cccc2c(S(=O)(=O)Oc3ccc(C[C@H](NS(=O)(=O)c4cc5nnoc5c5ccccc45)C(=O)O)cc3)cccc12,5.80,4.82
CN(C)c1cccc2c(S(=O)(=O)Oc3ccc(C[C@H](NS(=O)(=O)c4cccc5cc(N)ccc45)C(=O)O)cc3)cccc12,6.30,6.52
CN(C)c1cccc2c(S(=O)(=O)Oc3ccc(C[C@H](NS(=O)(=O)c4cccc5c(NC(=O)OCc6ccccc6)cccc45)C(=O)O)cc3)cccc12,7.00,5.03
CN(C)c1cccc2c(S(=O)(=O)Oc3ccc(C[C@H](NS(=O)(=O)c4cccc5cc([N+](=O)[O-])ccc45)C(=O)O)cc3)cccc12,6.52,6.52
CN(C)c1cccc2c(S(=O)(=O)Oc3ccc(C[C@H](NS(=O)(=O)c4ccc(NC(=O)OCc5ccccc5)c5ccccc45)C(=O)O)cc3)cccc12,5.77,5.82

# — ChEMBL document CHEMBL1142680, “Improving specificity vs bacterial thymidylate synthases through N-dansyl modulation of didansyltyrosine” (J Med Chem, 2005)
